Data: publication PMC5522071, “Preclinical development of G1T38: A novel, potent and selective inhibitor of cyclin dependent kinases 4/6 for use as an oral antineoplastic in patients with CDK4/6 sensitive tumors” (Oncotarget, 2017)

Assays:
[1] = tested on: H1975 xenograft; assay: H1975 NSCLC xenograft model; assay type: in vivo, mice; settings: for TGI: single agent, by 18 days of treatment
Source text: To evaluate the efficacy of G1T38 in combination with EGFR inhibitors, the H1975 xenograft model was utilized. H1975 is a human NSCLC that harbors the […] mutations rendering resistance to erlotinib treatment.
Afatinib is an irreversible second generation pan-ErbB inhibitor developed as a first-line treatment of patients with metastatic NSCLC whose tumors harbor EGFR mutations or deletions as well as in patients with metastatic disease that progressed after platinum-based chemotherapy.
Female NCI Ath/nu mice were implanted with H1975 NSC lung adenocarcinoma model. Once tumors reached an average size of 100- 150 mm^3, mice were randomized into treatment cohorts. Mice were orally administered daily afatinib (20 mg/kg, Genentech/OSI), erlotinib (70 mg/kg, LC Labs), or G1T38 (50 or 100 mg/kg), as single agents or in combination (G1T38 + erlotinib or G1T38 + afatinib) for the duration of the study. Tumors were measured twice weekly until mice reached tumor burden of 1500 mm^3.

[2] = tested on: RNA polymerase II (RPB1) CTD (SER2) phosphorylation in HS68 cells; assay: Western blot for Rpb1 CTD; assay type: cell-based; settings: immunoblot, 3-1000 nM, 24 hours

Structure (SMILES): CC(C)N1CCN(c2ccc(Nc3ncc4cc5n(c4n3)C3(CCCCC3)CNC5=O)nc2)CC1.Cl.Cl [G1T38, 2′-((5-(4-isopropylpiperazin-1-yl)pyridin-2-yl)amino)-7′, 8′dihydro-6′Hspiro[cyclohexane1,9′ pyrazino[1′,2′:1,5]pyrrolo[2,3-d]pyrimidin]-6′-one di-hydrochloride]
- TGI compared to vehicle, combination with erlotinib ([1]; 100 mg/kg G1T38 combined with 70 mg/kg erlotinib for 18 days): 80%
- resistance during treatment, combination with afatinib ([1]; G1T38 50 or 100 mg/kg + afatinib 20 mg/kg, 18 days): did not develop resistance
- effect on erlotinib resistance ([1]; G1T38 at any dose combined with 70 mg/kg erlotinib): the resistance to the erlotinib was reversed
- TGI ([1]; 50 mg/kg daily oral): 33.3%
- TGI ([1]; 100 mg/kg daily oral): 60.7%
- RPB1 CTD (SER2) phosphorylation (CDK9/cyclin T function) [2]: no loss
